The test system of assay [1] is CPP32. As to the kind of experiment: Reconstitution of dATP-dependent activation of CPP32 with S-cytosol (sucrose-prepared HeLa cytosol). It is filed as biochemical, human. As to conditions: S-cytosol 50 μg supplemented with 0.2 μg, 1 mM dATP. On the procedure: On day 0, Hela cells were set up at 5×10^5 cells per 100 mm dish in medium A as described hereinbelow. On day 2, cells were harvested, collected by centrifugation (1000 g, 10 min, 4° C.). After washed once with ice-cold PBS, the cell pellet was suspended in 5 volumes of ice-cold buffer A containing 250 mM sucrose. The cells were disrupted by douncing 3 times in a 5 ml Wheaton douncer with a pestle polished with sand paper. After microcentrifugation for 5 min at 4° C., the supernatants were further centrifuged at 10^5×g for 30 min in a table top ultracentrifuge (Beckman Instruments, Fullerton, Calif.). The resulting supernatants were designated as S-cytosol. Aliquots of S-cytosol (50 μg) alone (lanes 1 and 2), or supplemented with 0.2 μg Apaf-2 purified through the Mono S column (lanes 3 and 4), were incubated with aliquots of 3 μl in vitro translated, ^35S-labeled CPP32 in the absence (lanes 1, 3) or presence (lanes 2, 4) of 1 mM dATP at 30° C. for 1 hr in a final reaction volume of 20 μl of buffer A. Samples were subjected to SDS-PAGE and transferred to a nitrocellulose filter which were then exposed to film for 16 hr at room temperature.
Human cytochrome c is encoded by a single copy nuclear gene [Evans and Scarpulla (1988) Proc. Natl. Acad. Sci. USA 85, 9625-9629] which is translated on cytoplasmic ribosomes as apocytochrome c. […]

Assay [2] has as its system CPP32. As to the kind of experiment: Reconstitution of dATP-dependent CPP32 activation in HeLa S-100 immunodepleted of cytochrome c. The class given is biochemical, human. On the procedure:
Cytochrome c present in the HeLa cell S-100 was immunodepleted as described in the Example 10. In FIG. 7A, 10 μl aliquots of HeLa S-100 (50 μg) (lanes 1 and 2), or 10 μl aliquots of HeLa S-100 immunodepleted of cytochrome c (lanes 3 and 4), or 10 μl of HeLa S-100 immunodepleted of cytochrome c supplemented with 0.2 μg Apaf-2 purified through the Mono S column (H) (lanes 5 and 6), bovine heart cytochrome c (B) (lanes 7 and 8), or rat liver cytochrome c (R) (lanes 9 and 10), were incubated with aliquots of 3 μl in vitro translated, ^35S-labeled CPP32 in the absence (lanes 1, 3, 5, 7, 9) or presence (lanes 2, 4, 6, 8, 10) of 1 mM dATP at 30° C. for 1 hr in a final reaction volume of 20 μl of buffer A. Samples were subjected to SDS-PAGE and transferred to a nitrocellulose filter which were then exposed to film for 16 hr at room temperature. In FIG. 7B, HeLa S-100 (50 μg) immunodepleted of cytochrome c were reconstituted with the indicated amount of Apaf-2 (purified through Mono S column step) in a CPP32 cleavage reaction as described in FIG. 7A. The cleaved products (p20) were quantified in a Fuji-1000 phosphorimager machine and plotted in comparison with that generated by HeLa S-100. In FIG. 7C, aliquots of 50 μl of HeLa S-100 (250 μg) (lanes 1 and 2), or 50 μl of HeLa S-100 immunodepleted of cytochrome c (lanes 3 and 4), or 50 μl of HeLa S-100 immunodepleted of cytochrome c supplemented with 1 μg apaf-2 purified through the Mono S column (H) (lanes 5 and 6), bovine heart cytochrome c (B) (lanes 7 and 8), or rat liver cytochrome c (R) (lanes 9 and 10), were incubated with aliquots of 6 μl hamster liver nuclei in the absence (lanes 1, 3, 5, 7, 9) or presence (lanes 2, 4, 6, 8, 10) of 1 mM dATP at 37° C. for 2 hr in a final reaction volume of 60 μl. The DNA were isolated as described in the Examples, analyzed on 2% agarose gel electrophoresis, and the DNA was visualized by ethidium bromide staining. In FIG. 7D, DNA fragmentation assays were carried out as in FIG. 7C using HeLa S-100 immunodepleted of cytochrome c alone (a,b) or supplemented with Apaf-2 purified through Mono S column step (c,d) in the absence (a,c) or presence of 1 mM dATP (b,d). After 2 hr incubation at 37° C., an aliquot of each reaction (30 μl) was stained with 4′,6′-diamidino-2-phenylindole (DAPI), and observed under a fluorescence microscope with a UV-2A combination filter.
To rule out the possibility that the Apaf-2 activity is due to a minor contaminating protein that co-purified with cytochrome c, an immunodepletion experiment was carried out using a monoclonal antibody against rat cytochrome c. This monoclonal antibody cross-reacts with purified Apaf-2. As shown in FIGS. 7A-7D, HeLa cell S-100 depleted of cytochrome c using the monoclonal anti-cytochrome c antibody lost the dATP-dependent activation of CPP32 and the ability to induce DNA fragmentation in the added nuclei (FIGS. 7A and 7C, lanes 3 and 4). Adding back either the purified Apaf-2 from HeLa cells or the commercial cytochrome c from bovine heart or rat liver to the immunodepleted extracts restored the dATP-dependent activation of CPP32 and DNA fragmentation (FIGS. 7A and 7C, lanes 5-10). The reconstitution of cytochrome c dependent-activation of CPP32 was evident with the addition of 0.01 μg (33 nM) of purified cytochrome c to the cytochrome c-depleted extracts (FIG. 7B).
CPP32 was translated and purified as described above. Aliquot of 3 μl of the in vitro translated CPP32 was incubated with the indicated protein fraction, nucleotides, and 1 mM additional MgCl2 at 30° C. for 1 hour in a final volume of 20 μl of buffer A. At the end of the incubation, 7 μl of 4×SDS sample buffer was added to each reaction. After boiling for 3 min, each sample was subjected to a 15% SDS-polyacrylamide gel electrophoresis (SDS-PAGE). The gel was transferred to a nitrocellulose filter which was subsequently exposed to a Kodak X-OMAT AR X-ray film (Eastman Kodak, Rochester, N.Y.) for 16 hr at room temperature. […]

Where [3] appears, read: added to cytochrome c-depleted extracts.

For “Apaf-2: 15 kDa factor bound to phosphocellulose column, purified from HeLa S-100, identified as human cytochrome c”, in the assay on CPP32 [1], the “dATP-dependent activation of CPP32 in S-cytosol” value was “incapable of initiating the dATP-dependent activation of CPP32 (lanes 1 and 2) unless purified cytochrome c was added”. In addition, the “restoration of dATP-dependent activation of CPP32” value with CPP32 [2] (0.2 μg added to immunodepleted HeLa S-100, 1 mM dATP) was “restored”. For the same substance, in the assay with CPP32 [2] (setting [3]), the “amount at which reconstitution of CPP32 activation was evident” value worked out at 0.01 µg and the “concentration at which reconstitution of CPP32 activation was evident” value is 33 nM. In addition, the “recovered control activity (p20 cleaved product vs HeLa S-100)” value with CPP32 [2] (addition of 0.3 μg) is reported as “more than 100%”.

The record behind these values is patent publication US6558900B2, “Regulation of apoptosis and in vitro model for studies thereof” (Emory University, priority 1996, dated 2003).
